COC(=O)Nc1nc2ccc(Sc3ccccc3)cc2[nH]1
solubility (mole fraction) (in DMF, 283.15 K): 0.0397 | solubility (mole fraction) (in DMF, 288.15 K): 0.0559 | solubility (mole fraction) (in DMF, 293.15 K): 0.0731 | solubility (mole fraction) (in DMF, 298.15 K): 0.0997 | solubility (mole fraction) (in DMF, 303.15 K): 0.134 | solubility (mole fraction) (in DMF, 308.15 K): 0.175 | solubility (mole fraction) (in DMF, 313.15 K): 0.227 | solubility (mole fraction) (in DMF, 318.15 K): 0.291 | solubility (mole fraction) (in DMF, 323.15 K): 0.374 | solubility (mole fraction) (in DMF, 328.15 K): 0.47 | solubility (mole fraction) (in ethanol, 283.15 K): 0.000165 | solubility (mole fraction) (in ethanol, 288.15 K): 0.000219 | solubility (mole fraction) (in ethanol, 293.15 K): 0.000291 | solubility (mole fraction) (in ethanol, 298.15 K): 0.000378 | solubility (mole fraction) (in ethanol, 303.15 K): 0.000478 | solubility (mole fraction) (in ethanol, 308.15 K): 0.000598 | solubility (mole fraction) (in ethanol, 313.15 K): 0.000734 | solubility (mole fraction) (in ethanol, 318.15 K): 0.000918 | solubility (mole fraction) (in ethanol, 323.15 K): 0.00112 | solubility (mole fraction) (in ethanol, 328.15 K): 0.00137 | solubility (mole fraction) (in ethylene glycol, 283.15 K): 0.000127 | solubility (mole fraction) (in ethylene glycol, 288.15 K): 0.000171 | solubility (mole fraction) (in ethylene glycol, 293.15 K): 0.000232 | solubility (mole fraction) (in ethylene glycol, 298.15 K): 0.000305 | solubility (mole fraction) (in ethylene glycol, 303.15 K): 0.0004 | solubility (mole fraction) (in ethylene glycol, 308.15 K): 0.000513 | solubility (mole fraction) (in ethylene glycol, 313.15 K): 0.000648 | solubility (mole fraction) (in ethylene glycol, 318.15 K): 0.000812 | solubility (mole fraction) (in ethylene glycol, 323.15 K): 0.00101 | solubility (mole fraction) (in ethylene glycol, 328.15 K): 0.00126 | solubility (mole fraction) (in water, 283.15 K): 3.69e-06 | solubility (mole fraction) (in water, 288.15 K): 4.51e-06 | solubility (mole fraction) (in water, 293.15 K): 5.71e-06 | solubility (mole fraction) (in water, 298.15 K): 7.25e-06 | solubility (mole fraction) (in water, 303.15 K): 9.03e-06 | solubility (mole fraction) (in water, 308.15 K): 1.12e-05 | solubility (mole fraction) (in water, 313.15 K): 1.38e-05 | solubility (mole fraction) (in water, 318.15 K): 1.7e-05 | solubility (mole fraction) (in water, 323.15 K): 2.07e-05 | solubility (mole fraction) (in water, 328.15 K): 2.51e-05

Source: BigSolDB 2.1
